# “Also recorded” adds a separate entry of the source. Read-outs that look alike come from different tables or passages of the source.
# Tests used:
# [1] = molecular target: T1, MIF (Homo sapiens, UniProt P14174); experiment: MIF dopachrome tautomerase activity inhibition; assay type: biochemical; set-up: 1 μL of MIF solution (800-900 ng/mL)
# T1 sequence (P14174 2-115 limits assumed): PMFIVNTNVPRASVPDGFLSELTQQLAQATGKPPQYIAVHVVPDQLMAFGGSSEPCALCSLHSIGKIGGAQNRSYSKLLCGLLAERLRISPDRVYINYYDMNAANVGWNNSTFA
# Method: MIF tautomerase activity was measured by UV-Visible recording spectrophotometry (SHIMADZU, UV 1600U). A fresh stock solution of L-dopachrome methyl ester was prepared at 2.4 mM through oxidation of L3,4-dihydroxyphenylalanine methyl ester with sodium periodate. 1 μL of MIF solution (800-900 ng/mL) and 1 μL of a DMSO solution with various concentrations of the enzymatic inhibitor were added into a plastic cuvette (10 mm, 1.5 mL) containing 0.7 mL assay buffer (1× potassium phosphate, pH 7.2). The L-dopachrome methyl ester solution (0.3 mL) was added to the assay buffer mixture.
# [2] = test system: TNF release by LPS-treated macrophages; conditions: in vitro; cited from earlier work
# [3] = test system: endotoxemia and sepsis; conditions: intraperitoneal, 40 mg/kg; Al-Abed et al., 2005; cited from earlier work
# [4] = test system: TNF release by LPS-stimulated human macrophages; experiment: TNF release from LPS-stimulated macrophages; assay type: cell-based; conditions: FIG. 4
# Method: (§1) TNF-α production was then measured. The data shown are mean ±SD of triplicate wells in experiments that were repeated twice.
# It has been shown that the macrophage is an abundant source of MIF (Calandra et al., 1994), which is released after LPS stimulation. This led to an examination of the autocrine and paracrine activity of secreted MIF in vitro.
# [5] = preliminary acute toxicity screening; assay type: in vivo
# Excerpt: Design of Cyc-Oxi-11. ISO-1, the pharmacological inhibitor of MIF, neutralizes exogenous and endogenous MIF in in vitro and in vivo models. This indicates the successful application of chemical approaches to antagonize MIF biological activities. Although ISO-1 has significant anti-inflammatory activity, development of better inhibitors was desired. […] Representative structures of the novel oxime scaffold are presented in Table I, with their IC50 of inhibiting MIF dopachrome tautomerase activity.
# [6] = antibacterial effect; conditions: preliminary studies
# [7] = test system: CLP sepsis; experiment: cecal ligation and puncture (CLP) sepsis survival; assay type: in vivo; conditions: mice, intraperitoneal, first injection 24 hours after CLP, further injections day 2 and 3, FIG. 6
# Method: FIG. 6 is a graph showing that Cyc-Oxi-II is protective even when given 24 h after the induction of sepsis.
# An additional two injections were given, on day 2 and day 3. Thirteen mice were tested.
# [8] = molecular target: T1, MIF; experiment: MIF glucocorticoid-regulating (proinflammatory) activity in LPS-treated macrophages, TNF-α production; assay type: cell-based; set-up: dexamethasone plus MIF (3 nM purified native MIF); host or cells: added to monocyte-derived macrophages from human peripheral blood
# Method: as §1
# [9] = Table 1, left column pair, read-out: IC50 inhibition of MIF tautomerase activity
# [10] = Table 2, additional MIF inhibitors, read-out: IC50 MIF inhibitory activity in vitro
smiles,measurement,setting,value
O=C(O/N=C/c1ccc(O)cc1)C1CCC1,IC50,[1]; [9],12000 nM
CC(C)(C)OC(=O)NOC(=O)c1ccc(F)cc1 [BKIII-8W],IC50,[1]; [10],270 nM
CC(C)(C)OC(=O)NOC(=O)c1ccc(C(F)(F)F)cc1 [BKIII-9W],IC50,[1]; [10],69000 nM
"COc1ccc(OC(=O)O/N=C/c2ccc(O)c(F)c2)cc1 [Compound 5, (E)-3-fluoro-4-hydroxybenzaldehyde O-4′-methoxyphenyl carbonyloxime]",improvement of inhibition of dopachrome tautomerase activity over parent compound,[1]; mono-fluorinated analogue versus parent,63%
CC(C)(C)OC(=O)NOC(=O)c1ccc(I)cc1 [BKIII-9Y],IC50,[1]; [10],1700 nM
"COC(=O)C[C@@H]1CC(c2ccc(O)cc2)=NO1 (racemic) [ISO-1, (S,R)-3-(4-hydroxyphenyl)-4,5-dihydro-5-isoxazole acetic acid methyl ester]",inhibition of TNF release,[2],60%
same,survival rate,[3],increased the survival rate
O=C(O/N=C/c1ccc(O)cc1)C1CCCC1,IC50,[1]; [9],4800 nM
COc1ccc(C(=O)ONC(=O)OC(C)(C)C)cc1 [BKII-99],IC50,[1]; [10],1200 nM
CC(C)(C)OC(=O)NOC(=O)C1CCCCC1 [BKII-85],IC50,[1]; [10],19500 nM
CC(C)(C)OC(=O)NOC(=O)c1ccc(OC(=O)c2ccc(O)cc2)cc1 [BKIII-6Y],IC50,[1]; [10],50000 nM
CC(C)(C)OC(=O)NOC(=O)C1CCC1 [BKII-92],IC50,[1]; [10],370 nM
CC(C)(C)OC(=O)NNC(=O)C1CCCCC1 [BKII-90],IC50,[1]; [10],60000 nM
CC(C)(C)OC(=O)NOC(=O)c1ccc(Cl)cc1 [BKIII-8Y],IC50,[1]; [10],870 nM
CC(C)(C)OC(=O)NOC(=O)C1CC1 [BKII-91],IC50,[1]; [10],1900 nM
CC(C)(C)OC(=O)NOC(=O)c1ccc(Br)cc1 [BKIII-11Y],IC50,[1]; [10],1300 nM
COc1ccc(C(=O)ON=Cc2ccc(O)cc2)cc1 [Compound 4],IC50,[1]; read-out: IC50 of MIF dopachrome tautomerase activity,1100 nM
CC(C)(C)OC(=O)NOC(=O)C1CCCC1 [BKII-93],IC50,[1]; [10],700 nM
CC(C)(C)OC(=O)NOC(=O)c1c(F)c(F)c(F)c(F)c1F [BKIII-6W],IC50,[1]; [10],118000 nM
CC(C)(C)OC(=O)NOC(=O)c1ccccc1 [BKII-98],IC50,[1]; [10],230 nM
"O=C(O/N=C/c1ccc(O)cc1)C1CCCCC1 [Cyc-Oxi-11, (E)-4-hydroxybenzaldehyde O-cyclohexanecarbonyloxime]",inhibition of TNF release,[4],"inhibits TNF release in vitro; also recorded: in a dose-dependent manner, inhibits TNF release; also recorded: inhibits MIF induction of TNF release"
same,"acute toxicity, intraperitoneal injection",[5]; doses up to 100 mg/Kg,no evidence of toxicity
same,toxicity at high doses,"[5]; high doses, both in vitro and in vivo",lacks obvious toxicity
same,antibacterial effect,[6],negative
same,deaths / protection after CLP,[7],considerably reduced the deaths caused by CLP
same,deaths / protection after CLP,[7]; listed as Cyc-Oxi-II,protective
same,potency versus ISO-1 in MIF tautomerase inhibition,[1]; relative to ISO-1,30 fold
same,inhibition of MIF-dependent interference with glucocorticoids,"[8]; LPS-stimulated human macrophages, FIG. 3",significantly inhibited; also recorded: suppresses the ability of MIF to regulate glucocorticoids
same,potency versus ISO-1 as inhibitor of MIF proinflammatory activity in vitro,[8]; relative to ISO-1,30 fold

# Source: patent US20090318509A1, “Oxime Derivatives as Inhibitors of Macrophage Migration Inhibitory Factor” (priority 2006, published 2009)
